Laboratory results as given in US10105357B2, “Indication of antibiotic drugs for preparation of cancer inhibition pharmaceutical composition” (LAUNX BIOMEDICAL CO., LTD., priority 2014, dated 2018).
Structures can show the parent of a compound that is named as a salt. Where two headings read alike, the source gives them in different places.

Tests used:
Format in all cases: cell-based, human
cancer cell lines = experiment: Cell viability analysis (WST-1) on cancer cell lines; settings: drug 10 μM, 72 hours, WST-1; Table 3
[1] = test system: HI650 (Lung Adenocarcinoma); experiment: Cell viability analysis, lung cancer HI650; settings: Homo sapiens, NCI-H1650, 72 h
[2] = test system: A549 (Lung Adenocarcinoma); experiment: Cell viability analysis, lung cancer A549; settings: for viability at 10 µM: Homo sapiens, A549, 72 h
[3] = test system: AGS (Gastric Adenocarcinoma); experiment: Cell viability analysis, gastric cancer AGS; settings: Homo sapiens, 72 h
[4] = test system: MKN-45 (Gastric Adenocarcinoma); experiment: Cell viability analysis, gastric cancer MKN-45; settings: for viability at 10 µM: Homo sapiens, MKN-45, 72 h
[5] = test system: HepG2 (Hepatocellular Carcinoma); experiment: Cell viability analysis, hepatic cancer HepG2; settings: Homo sapiens, HepG2, 72 h
[6] = test system: LoVo (Colorectal Adenocarcinoma); experiment: Cell viability analysis, colon cancer LoVo; settings: 72 h; for viability at 10 µM: Homo sapiens, LoVo, read-out: cell viability (survival rate), LoVo, drug 10 μM, 72 hours, WST-1, OD450 nm
[7] = test system: A375 (Amelanotic Melanoma); experiment: Cell viability analysis, skin cancer A375; settings: for viability at 10 µM: Homo sapiens, A-375, 72 h
[8] = test system: HeLa (Cervix Adenocarcinoma); experiment: Cell viability analysis, cervical cancer HeLa; settings: Homo sapiens, HeLa, 72 h
[9] = test system: PC3 (p53−) (Prostate Adenocarcinoma); experiment: Cell viability analysis, prostate cancer PC3; settings: 72 h; for viability at 10 µM: Homo sapiens
[10] = test system: TSGH-8301 (Urinary Bladder Carcinoma); experiment: Cell viability analysis, bladder cancer TSGH-8301; settings: 72 h; for viability at 10 µM: Homo sapiens
[11] = test system: MCF7 (Mammary Gland, Adenocarcinoma); experiment: Cell viability analysis, breast cancer MCF7; settings: Homo sapiens, MCF7, 72 h
[12] = test system: HL-60 (Acute Promyelocytic Leukemia); experiment: Cell viability analysis, leukemia HL-60; settings: Homo sapiens, HL-60, 72 h
[13] = drug 10 μM, 72 hours, WST-1, OD450 nm, read-out: cell viability (survival rate), H1650
[14] = drug 10 μM, 72 hours, WST-1, OD450 nm, read-out: cell viability (survival rate), A549
[15] = drug 10 μM, 72 hours, WST-1, OD450 nm, read-out: cell viability (survival rate), AGS
[16] = drug 10 μM, 72 hours, WST-1, OD450 nm, read-out: cell viability (survival rate), MKN-45
[17] = drug 10 μM, 72 hours, WST-1, OD450 nm, read-out: cell viability (survival rate), HepG2
[18] = drug 10 μM, 72 hours, WST-1, OD450 nm, read-out: cell viability (survival rate), A375
[19] = drug 10 μM, 72 hours, WST-1, OD450 nm, read-out: cell viability (survival rate), HeLa
[20] = drug 10 μM, 72 hours, WST-1, OD450 nm, read-out: cell viability (survival rate), PC3
[21] = drug 10 μM, 72 hours, WST-1, OD450 nm, read-out: cell viability (survival rate), TSGH
[22] = drug 10 μM, 72 hours, WST-1, OD450 nm, read-out: cell viability (survival rate), MCF7
[23] = drug 10 μM, 72 hours, WST-1, OD450 nm, read-out: cell viability (survival rate), HL-60
[24] = read-out: cell viability (survival rate), H1650, drug 10 μM, 72 hours, WST-1, OD450 nm
[25] = read-out: cell viability (survival rate), A549, drug 10 μM, 72 hours, WST-1, OD450 nm
[26] = read-out: cell viability (survival rate), AGS, drug 10 μM, 72 hours, WST-1, OD450 nm
[27] = read-out: cell viability (survival rate), MKN-45, drug 10 μM, 72 hours, WST-1, OD450 nm
[28] = read-out: cell viability (survival rate), HepG2, drug 10 μM, 72 hours, WST-1, OD450 nm
[29] = read-out: cell viability (survival rate), A375, drug 10 μM, 72 hours, WST-1, OD450 nm
[30] = read-out: cell viability (survival rate), HeLa, drug 10 μM, 72 hours, WST-1, OD450 nm
[31] = read-out: cell viability (survival rate), PC3, drug 10 μM, 72 hours, WST-1, OD450 nm
[32] = read-out: cell viability (survival rate), TSGH, drug 10 μM, 72 hours, WST-1, OD450 nm
[33] = read-out: cell viability (survival rate), MCF7, drug 10 μM, 72 hours, WST-1, OD450 nm
[34] = read-out: cell viability (survival rate), HL-60, drug 10 μM, 72 hours, WST-1, OD450 nm

| Structure (SMILES) | inhibition effect on different cancer cell lines (cancer cell lines) | viability at 10 µM [6] | viability at 10 µM [1, 24] | viability at 10 µM [2, 25] | viability at 10 µM [3, 26] | viability at 10 µM [4, 27] | viability at 10 µM [5, 28] | viability at 10 µM [7, 29] | viability at 10 µM [8, 30] | viability at 10 µM [9, 31] | viability at 10 µM [10, 32] | viability at 10 µM [11, 33] | viability at 10 µM [12, 34] | also measured |
| --- | --- | --- | --- | --- | --- | --- | --- | --- | --- | --- | --- | --- | --- | --- |
| COc1cnc(NS(=O)(=O)c2ccc(N)cc2)nc1 [Sulfameter (Bayrena), Sulfameter] | significant inhibition effect | 89.9% |  |  |  |  |  |  |  |  |  |  |  | viability at 10 µM [1, 13]: 84.8%; viability at 10 µM [2, 14]: 59%; viability at 10 µM [3, 15]: 67.4%; viability at 10 µM [4, 16]: 58.6%; viability at 10 µM [5, 17]: 95.5%; viability at 10 µM [7, 18]: 89.2%; viability at 10 µM [8, 19]: 78.4%; viability at 10 µM [9, 20]: 90.2%; viability at 10 µM [10, 21]: 78.6%; viability at 10 µM [11, 22]: 51.7%; viability at 10 µM [12, 23]: 110% |
| O=C(NC(Cc1cc(=O)[nH]c2ccccc12)C(=O)O)c1ccc(Cl)cc1 (stereo not drawn) [Rebamipide] | significant inhibition effect | 84.9% | 80.4% | 28% | 89.6% | 97.4% | 95.3% | 81.1% | 77.4% | 82.2% | 105% | 39.1% | 100% |  |
| C[C@@H]1C/C=C/C=C/C=C/C=C/[C@H](O[C@@H]2O[C@H](C)[C@@H](O)[C@H](N)[C@@H]2O)C[C@@H]2O[C@](O)(C[C@@H](O)C[C@H]3O[C@@H]3/C=C/C(=O)O1)C[C@H](O)[C@H]2C(=O)O [Natamycin (Pimaricin), Natamycin] | significant inhibition effect | 84.8% | 57% | 62.6% | 40.9% | 67.1% | 95.3% | 82.1% | 93.5% | 70% | 84.9% | 83.2% | 107% |  |
| O=C1OC(CN2CCOCC2)CN1/N=C/c1ccc([N+](=O)[O-])o1 (stereo not drawn) [Furaltadone HCl] | significant inhibition effect | 62.2% | 83.1% | 67.9% | 68.2% | 72.6% | 83.2% | 66% | 64% | 99.2% | 81.3% | 103% | 64.6% |  |
| Cc1cc(NS(=O)(=O)c2ccc(N)cc2)no1 [Sulfamethoxazole] | significant inhibition effect | 71.7% | 85.8% | 43.9% | 67.7% | 60.7% | 115% | 44.3% | 87.8% | 44.9% | 62.1% | 46.1% | 99.4% |  |
| CN(C)[C@@H]1C(O)=C(C(N)=O)C(=O)[C@@]2(O)C(O)=C3C(=O)c4c(O)cccc4[C@@](C)(O)[C@H]3[C@H](O)[C@@H]12 [Oxytetracycline dihydrate] | significant inhibition effect |  | 73.8% |  | 71.7% |  | 93.4% |  | 65.6% |  |  | 34.2% | 99.3% | cell viability (survival rate), A549 ([2]; human, 72 h, 10 µM): 22.1; cell viability (survival rate), MKN-45 ([4]; human, 72 h, 10 µM): 81.4; cell viability (survival rate), LoVo ([6]; human, 10 µM): 47.0; cell viability (survival rate), A375 ([7]; human, 72 h, 10 µM): 72.5; cell viability (survival rate), PC3 ([9]; human, 10 µM): 42.1; cell viability (survival rate), TSGH ([10]; human, 10 µM): 53.4 |
| NCCS(=O)(=O)O [Taurine] | significant inhibition effect | 98.5% | 46.1% | 84% | 64.1% | 61.6% | 93.1% | 77.6% | 84.9% | 61.1% | 110% | 91.5% | 116% |  |
| CC(=O)Oc1cc(C(F)(F)F)ccc1C(=O)O [Triflusal] | significant inhibition effect | 103% | 81.3% | 112% | 93.3% | 134% | 103% | 95.9% | 105% | 87.5% | 86.5% | 97.8% | 93.3% |  |
| CC1(C)S[C@@H]2[C@H](NC(=O)C(C(=O)O)c3ccccc3)C(=O)N2[C@H]1C(=O)O (stereo partly drawn) [Carbenicillin disodium] | significant inhibition effect | 86.2% | 76.2% | 53.5% | 62.9% | 84.3% | 88.9% | 70.2% | 77.8% | 84.4% | 84.3% | 59% | 114% |  |
| NNC(=O)c1ccncc1 [Isoniazid (Tubizid), Isoniazid] | significant inhibition effect | 71% |  |  |  |  |  |  |  |  |  |  |  | viability at 10 µM [1, 13]: 64.7%; viability at 10 µM [2, 14]: 45.7%; viability at 10 µM [3, 15]: 50.5%; viability at 10 µM [4, 16]: 44.6%; viability at 10 µM [5, 17]: 110%; viability at 10 µM [7, 18]: 54.9%; viability at 10 µM [8, 19]: 77.9%; viability at 10 µM [9, 20]: 39.6%; viability at 10 µM [10, 21]: 42.2%; viability at 10 µM [11, 22]: 44.7%; viability at 10 µM [12, 23]: 102% |
| N#CC(c1ccc(Cl)cc1)c1c(Cl)cc(-n2ncc(=O)[nH]c2=O)cc1Cl (stereo not drawn) [Diclazuril] | significant inhibition effect | 78.4% |  |  |  |  |  |  |  |  |  |  |  | viability at 10 µM [1, 13]: 104%; viability at 10 µM [2, 14]: 42.7%; viability at 10 µM [3, 15]: 76.3%; viability at 10 µM [4, 16]: 97.9%; viability at 10 µM [5, 17]: 99.3%; viability at 10 µM [7, 18]: 84.5%; viability at 10 µM [8, 19]: 76.1%; viability at 10 µM [9, 20]: 95.5%; viability at 10 µM [10, 21]: 103%; viability at 10 µM [11, 22]: 40.4%; viability at 10 µM [12, 23]: 70.2% |
| Cc1onc(-c2c(Cl)cccc2Cl)c1C(=O)N[C@@H]1C(=O)N2[C@@H]1SC(C)(C)[C@@H]2C(=O)O [Dicloxacillin Sodium] | significant inhibition effect | 92.4% | 68.4% | 61.8% | 147% | 66.4% | 102% | 79% | 60.1% | 71.1% | 84.3% | 45.3% | 72.7% |  |
